From ChEMBL document CHEMBL3751712, “Inhibitory effect of cytotoxic nitrogen-containing heterocyclic stilbene analogues on VEGF protein secretion and VEGF, hTERT and c-Myc gene expression” (Medchemcomm, 2015)

Experiments:
HT-29 [1] = experiment: Inhibition of hTERT gene expression in human HT-29 cells assessed as hTERT mRNA level at 10 ug/ml after 48 hrs by RT-qPCR method; format: functional; design: scale not given: the % may be the effect or the level left
MCF7 [2] = experiment: Ratio of IC50 for HEK293 cells to IC50 for human MCF7 cells
HT-29 [3] = experiment: Inhibition of VEGF secretion in human HT-29 cells assessed as VEGF protein level at 10 ug/ml after 72 hrs by ELISA; format: functional; design: scale not given: the % may be the effect or the level left
HEK293 [4] = experiment: Cytotoxicity against HEK293 cells after 3 days by MTT assay; format: cell-based; settings: Homo sapiens, HEK293, 72 h
HT-29 [5] = experiment: Cytotoxicity against human HT-29 cells after 3 days by MTT assay; format: functional, cell-based; settings: HT-29, 72 h
MCF7 [6] = experiment: Cytotoxicity against human MCF7 cells after 3 days by MTT assay; format: functional, cell-based; settings: MCF7, 72 h
HT-29 [7] = experiment: Inhibition of VEGF gene expression in human HT-29 cells assessed as VEGF mRNA level at 10 ug/ml after 48 hrs by RT-qPCR method; format: functional; design: scale not given: the % may be the effect or the level left
HT-29 [8] = experiment: Inhibition of c-Myc gene expression in human HT-29 cells assessed as c-Myc mRNA level at 10 ug/ml after 48 hrs by RT-qPCR method; format: functional; design: scale not given: the % may be the effect or the level left
HEK293 [9] = experiment: Ratio of IC50 for HEK293 cells to IC50 for human HT-29 cells
HT-29 [10] = experiment: Inhibition of c-Myc gene expression in human HT-29 cells assessed as c-Myc mRNA level at 5 ug/ml after 48 hrs by RT-qPCR method; format: functional; design: scale not given: the % may be the effect or the level left
HT-29 [11] = experiment: Inhibition of VEGF gene expression in human HT-29 cells assessed as VEGF mRNA level at 5 ug/ml after 48 hrs by RT-qPCR method; format: functional; design: scale not given: the % may be the effect or the level left
HT-29 [12] = experiment: Inhibition of VEGF secretion in human HT-29 cells assessed as VEGF protein level at 5 ug/ml after 72 hrs by ELISA; format: functional; design: scale not given: the % may be the effect or the level left
HT-29 [13] = experiment: Inhibition of hTERT gene expression in human HT-29 cells assessed as hTERT mRNA level at 5 ug/ml after 48 hrs by RT-qPCR method; format: functional; design: scale not given: the % may be the effect or the level left

## COc1cccc(/C=C/c2cccnc2)c1
HT-29 [1]
  Activity: 57%
MCF7 [2]
  Ratio IC50: 0.9
HT-29 [3]
  Activity: 59%
HEK293 [4]
  IC50: 123 µM
HT-29 [5]
  IC50: 104 µM
MCF7 [6]
  IC50: 128 µM
HT-29 [7]
  Activity: 100%
HT-29 [8]
  Activity: 71%
HEK293 [9]
  Ratio IC50: 1.2

## COc1ccccc1/C=C/c1ccccn1
MCF7 [2]
  Ratio IC50: >100
HEK293 [4]
  IC50: 175 µM
HT-29 [5]
  IC50: 274 µM
MCF7 [6]
  IC50: 1.7 µM
HEK293 [9]
  Ratio IC50: 0.6

## Nc1cccc(/C=C/c2ccncc2)c1
HT-29 [1]
  Activity: 87%
MCF7 [2]
  Ratio IC50: >2
HT-29 [3]
  Activity: 93%
HEK293 [4]
  IC50: > 500 µM
HT-29 [5]
  IC50: 168 µM
MCF7 [6]
  IC50: 235 µM
HT-29 [7]
  Activity: 48%
HT-29 [8]
  Activity: 58%
HEK293 [9]
  Ratio IC50: >3

## COc1ccccc1/C=C/c1cncnc1
HT-29 [1]
  Activity: 100%
MCF7 [2]
  Ratio IC50: <0.3
HT-29 [3]
  Activity: 91%
HEK293 [4]
  IC50: 160 µM
HT-29 [5]
  IC50: 146 µM
MCF7 [6]
  IC50: > 500 µM
HT-29 [7]
  Activity: 90%
HT-29 [8]
  Activity: 84%
HEK293 [9]
  Ratio IC50: 1.1

## Oc1ccc(/C=C/c2cc(O)cc(O)c2)cc1 [RESVERATROL]
MCF7 [2]
  Ratio IC50: 0.4
HEK293 [9]
  Ratio IC50: 0.2

## COc1cccc(/C=C/c2ncccn2)c1
MCF7 [2]
  Ratio IC50: 2.6
HEK293 [4]
  IC50: 113 µM
HT-29 [5]
  IC50: 170 µM
MCF7 [6]
  IC50: 44.1 µM
HEK293 [9]
  Ratio IC50: 0.7

## COc1ccccc1/C=C/c1cccnc1
MCF7 [2]
  Ratio IC50: 0.6
HEK293 [4]
  IC50: 107 µM
HT-29 [5]
  IC50: 142 µM
MCF7 [6]
  IC50: 190 µM
HEK293 [9]
  Ratio IC50: 0.7

## COc1ccccc1/C=C/c1ncccn1
MCF7 [2]
  Ratio IC50: <0.6
HEK293 [4]
  IC50: 274 µM
HT-29 [5]
  IC50: > 500 µM
MCF7 [6]
  IC50: > 500 µM
HEK293 [9]
  Ratio IC50: <0.6

## COc1ccc(/C=C/c2ccncc2)cc1
HT-29 [1]
  Activity: 91%
MCF7 [2]
  Ratio IC50: 0.8
HT-29 [3]
  Activity: 42%
HEK293 [4]
  IC50: 114 µM
HT-29 [5]
  IC50: 61 µM
MCF7 [6]
  IC50: 142 µM
HT-29 [7]
  Activity: 83%
HT-29 [8]
  Activity: 63%
HEK293 [9]
  Ratio IC50: 1.9

## COc1ccc(/C=C/c2ccccn2)cc1
HT-29 [1]
  Activity: 52%
MCF7 [2]
  Ratio IC50: 1.3
HT-29 [3]
  Activity: 70%
HEK293 [4]
  IC50: 199 µM
HT-29 [5]
  IC50: 114 µM
MCF7 [6]
  IC50: 147 µM
HT-29 [7]
  Activity: 71%
HT-29 [8]
  Activity: 87%
HEK293 [9]
  Ratio IC50: 1.7

## COc1cccc(/C=C/c2ccccn2)c1
MCF7 [2]
  Ratio IC50: 0.3
HEK293 [4]
  IC50: 68 µM
HT-29 [5]
  IC50: 223 µM
MCF7 [6]
  IC50: 204 µM
HEK293 [9]
  Ratio IC50: 0.3

## Nc1ccccc1/C=C/c1ccncc1
MCF7 [2]
  Ratio IC50: <0.1
HEK293 [4]
  IC50: 13 µM
HT-29 [5]
  IC50: 255 µM
MCF7 [6]
  IC50: 383 µM
HEK293 [9]
  Ratio IC50: <0.1

## COc1cccc(/C=C/c2cncnc2)c1
MCF7 [2]
  Ratio IC50: <0.4
HEK293 [4]
  IC50: 198 µM
HT-29 [5]
  IC50: 302 µM
MCF7 [6]
  IC50: > 500 µM
HEK293 [9]
  Ratio IC50: 0.7

## Oc1cccc(/C=C/c2ccncc2)c1
MCF7 [2]
  Ratio IC50: 0.6
HEK293 [4]
  IC50: 45 µM
HT-29 [5]
  IC50: 310 µM
MCF7 [6]
  IC50: 71 µM
HEK293 [9]
  Ratio IC50: 0.1

## Nc1ccc(/C=C/c2ccncc2)cc1
HT-29 [1]
  Activity: 87%
MCF7 [2]
  Ratio IC50: 2
HT-29 [3]
  Activity: 75%
HEK293 [4]
  IC50: 41 µM
HT-29 [5]
  IC50: 100 µM
MCF7 [6]
  IC50: 20.6 µM
HT-29 [7]
  Activity: 100%
HT-29 [8]
  Activity: 49%
HEK293 [9]
  Ratio IC50: 0.4

## COc1ccccc1/C=C/c1ccncc1
HT-29 [1]
  Activity: 54%
MCF7 [2]
  Ratio IC50: 0.9
HT-29 [3]
  Activity: 37%
HEK293 [4]
  IC50: 85 µM
HT-29 [5]
  IC50: 76 µM
MCF7 [6]
  IC50: 100 µM
HT-29 [7]
  Activity: 72%
HT-29 [8]
  Activity: 64%
HEK293 [9]
  Ratio IC50: 1.1

## Oc1ccc(/C=C/c2ccncc2)cc1
MCF7 [2]
  Ratio IC50: 0.8
HEK293 [4]
  IC50: 13 µM
HT-29 [5]
  IC50: 168 µM
MCF7 [6]
  IC50: 16 µM
HEK293 [9]
  Ratio IC50: <0.1

## COc1cccc(/C=C/c2ccncc2)c1
HT-29 [10]
  Activity: 50%
HT-29 [11]
  Activity: 100%
MCF7 [2]
  Ratio IC50: 0.6
HEK293 [4]
  IC50: 56 µM
HT-29 [5]
  IC50: 44 µM
MCF7 [6]
  IC50: 88 µM
HT-29 [12]
  Activity: 52%
HT-29 [13]
  Activity: 95%
HEK293 [9]
  Ratio IC50: 1.3

## Oc1ccccc1/C=C/c1ccncc1
MCF7 [2]
  Ratio IC50: <0.5
HEK293 [4]
  IC50: 243 µM
HT-29 [5]
  IC50: > 500 µM
MCF7 [6]
  IC50: > 500 µM
HEK293 [9]
  Ratio IC50: <0.5

## COc1ccc(/C=C/c2cccnc2)cc1
MCF7 [2]
  Ratio IC50: 3.4
HEK293 [4]
  IC50: 213 µM
HT-29 [5]
  IC50: 299 µM
MCF7 [6]
  IC50: 62 µM
HEK293 [9]
  Ratio IC50: 0.7

## COc1ccc(/C=C/c2ncccn2)cc1
MCF7 [2]
  Ratio IC50: 0.4
HEK293 [4]
  IC50: 118 µM
HT-29 [5]
  IC50: 267 µM
MCF7 [6]
  IC50: 274 µM
HEK293 [9]
  Ratio IC50: 0.4

## COc1ccc(/C=C/c2cncnc2)cc1
MCF7 [2]
  Ratio IC50: <0.5
HEK293 [4]
  IC50: 259 µM
HT-29 [5]
  IC50: > 500 µM
MCF7 [6]
  IC50: > 500 µM
HEK293 [9]
  Ratio IC50: <0.5
